Experimental findings from patent US11617748B2, “Meclozine derivatives and diclazuril derivatives for use in the prevention and/or the treatment of disorders associated to the inflammation induced by P. acnes” (priority 2016, dated 2023) are described below.

Counter-ions that a name gives are not always drawn.

Format in all cases: cell-based, human
One data set has as its system HaCaT cells. The data set can be described thus: MTT cell viability assay on HaCaT keratinocytes. The following applies: for Evaluation of cell viability after treatment with meclozine analogues on keratinocytes: 24 h, 10 μM. As for the experimental part: Cell culture, pretreatment and stimulation. The immortalized human keratinocyte cell line HaCaT, fibroblast MRC5 were grown in Dulbecco's modified Eagle's medium-Glutamax-I (DMEM) with 1 mM sodium pyruvate. […] DMEM and RPMI were supplemented with 0.1% and 10% heat-inactivated fetal calf serum (Invitrogen), and an antibiotic/antimycotic solution (10 U/ml Pencillin, 10 μg/ml Streptomycin, 0.25 μg/ml Amphoterin) at 37° C. in humidified atmosphere containing 5% CO2 as described (Life Technologie). Primary human keratinocytes (NHDK) and fibroblast (HDF) were grown in the KGM-Gold and in FGM-2 Bullet Kit, respectively, as described by the manufacturer (Lonza). The immortalized cell lines were routinely tested to assess the absence of Mycoplasma infection. Cells, cultivated in 6- or 96-well polystyrene plates, were pretreated with appropriate molecule solution for 1 to 48 h at 37° C. in the dark at the appropriate concentration. Then, for stimulation, cells were incubated for 15 min to 24 h with the P. acnes suspension adjusted at the appropriate concentration at 37° C. in 5% CO2. For experiences using an in vitro model of psoriasis, the primary human keratinocytes (NHDK) were grown in culture medium for 24 hours.
Cell viability assays. Viability of cells was estimated by using the MTT assay where cells were incubated with a 0.2% MTT solution in cell culture medium for 4 h at 37° C. The MTT solution was then discarded and DMSO added to solubilize the MTT-formazan cristals produced in living cells. After thorough mixing, the absorbance was measured at 540 nm.
On the technique in general: Tetrazolium assays rely on reduction of a dye to a coloured formazan, in cell work by metabolically active cells.

The subject of data set [1] is IL-8 production. The experiment in a line: P. acnes-induced IL-8 production in HaCaT keratinocytes (ELISA). As to conditions: for Dose-dependent inhibition of IL-8 production by keratinocytes stimulated by P. acnes pre-treated with meclozine analogues: 10 μM; for Dose-dependent inhibition of IL-8 production by keratinocytes stimulated by P. acnes pre-treated with meclozine analogues / decrease of IL-8 production at 6.25 μM: 24 h pre-treatment; for decrease of IL-8 production at 6.25 μM: comparison with acne drugs (FIG. 8A); for effect on IL-8 production at 6.25 μM, in words: 24 h pre-treatment (FIG. 8A). As for the experimental part:
Bacterial strain and conditions of growth. P. acnes strain 6919 was obtained from the American Type Culture Collection (Manassas, Va.) and P. acnes strains RON and PIE were isolated from patient with joint infection. All strains were grown under anaerobic conditions in reinforced clostridial liquid and solid medium (RCM) (Difco Laboratories, Detroit, Mich.). P. acnes was transferred from the bacterial stock onto RCM agar plate and incubated for 5 days under anaerobic condition by using a GasPak™ EZ Anaerobic Container System (Becton Dickinson & Co, Sparks Md., USA). A single colony was transferred into 100 ml RCM and grown as described above. Bacterial suspension was then store frozen at −80° C. in presence of 10% glycerol final. This stock was called «start stock» and used for all the experiments. For routine culture, 100 ml of RCM was used and bacteria were harvested after 5 days at 37° C. by centrifugation at 7,000×g for 10 min at 4° C. Pellets were pooled and washed in about 30 ml of cold sterile PBS [1.5 mM KH2PO4, 2.7 mM Na2HPO4.7H2O, 0.15 M NaCl (pH 7.4)] and centrifuged again as described above. Finally, the bacterial pellet was suspended in sterile PBS (1:10 from volume culture).
Cell culture, pretreatment and stimulation. The immortalized human keratinocyte cell line HaCaT, fibroblast MRC5 were grown in Dulbecco's modified Eagle's medium-Glutamax-I (DMEM) with 1 mM sodium pyruvate. The immortalized human monocytic cell line ThP1 was grown in Roswell Park Memorial Institute 1640 Medium-Glutamax-I (RPMI). DMEM and RPMI were supplemented with 0.1% and 10% heat-inactivated fetal calf serum (Invitrogen), and an antibiotic/antimycotic solution (10 U/ml Pencillin, 10 μg/ml Streptomycin, 0.25 μg/ml Amphoterin) at 37° C. in humidified atmosphere containing 5% CO2 as described (Life Technologie). Primary human keratinocytes (NHDK) and fibroblast (HDF) were grown in the KGM-Gold and in FGM-2 Bullet Kit, respectively, as described by the manufacturer (Lonza). The immortalized cell lines were routinely tested to assess the absence of Mycoplasma infection. Cells, cultivated in 6- or 96-well polystyrene plates, were pretreated with appropriate molecule solution for 1 to 48 h at 37° C. in the dark at the appropriate concentration. Then, for stimulation, cells were incubated for 15 min to 24 h with the P. acnes suspension adjusted at the appropriate concentration at 37° C. in 5% CO2. For experiences using an in vitro model of psoriasis, the primary human keratinocytes (NHDK) were grown in culture medium for 24 hours. The medium was removed and replaced with culture medium containing meclozine, diclazuril and JAK inhibitor (used as positive control) at the concentrations of 0.39, 0.78, 1.56, 3.12, 6.25 and 12.5 μM and the pro-inflammatory mixture M5 (combination of IL-17A, OSM, TNF-α, IL-22, IL-1α at 10 ng/ml) was added to the cells followed by an incubation for 48 or 72 hours.
(§1) ELISA. Human IL-1β, IL-8, hBD-2 and TNF-α protein concentration were measured in the supernatants of stimulated cells using various ELISA Sets (all from Ready-Set-Go from eBioscience, except hBD-2 measurements: Human DEFB4A/BD-2 ELISA Kit from LSBio) according to the manufacturer's instructions. We used serial dilutions of recombinant human IL-1β, IL-8, hBD-2 and TNF-α for standard curve. The optical density was determined at 450 nm at a wavelength correction of 540 nm.
Both molecules, diclazuril and meclozine, were purchased separately from Sigma and tested independently on immortalized keratinocytes HaCaT cell for their capacity to inhibit the IL-8 production in a dose-dependent manner. HaCaT cells were pre-treated with diclazuril and meclozine, at the concentrations ranging from 0.39 to 50 μM, for 24 h and then stimulated with P. acnes suspension as described in Materials and Methods. The production of IL-8 was measured on culture supernatant by ELISA and the viability of cells was estimated by MTT assay (FIG. 1).

In the next data set the test system is hBD-2 production. The data set can be described thus: hBD-2 production by M5-stimulated NHDK, in vitro psoriasis-like model (ELISA). The following applies: NHDK + M5, 48 h, JAK inhibitor at 6.25 μM (positive control). How it is done: (§2) Cell culture, pretreatment and stimulation.
as §1
Background: In an ELISA, binding on a coated surface is turned into a signal by an enzyme label.

Data set [2] deals with IL-8 production. The experiment in a line: IL-8 production by M5-stimulated NHDK, in vitro psoriasis-like model (ELISA). As to conditions: NHDK + M5, 48 h, JAK inhibitor at 6.25 μM (positive control). As for the experimental part: as §2, §1
Data set [3] concerns IL-8 production. The data set can be described thus: P. acnes-induced IL-8 production in HaCaT keratinocytes (ELISA). The following applies: HaCaT cells pre-treated 24 h, no P. acnes stimulation.

On to `CN1CCN(C(c2ccccc2)c2ccc(Cl)cc2)CC1` (centres unmarked) [Chlorcyclizine hydrochloride], for which the “Evaluation of cell viability after treatment with meclozine analogues on keratinocytes” value with HaCaT cells (human) stood at 81%. Besides, the “Dose-dependent inhibition of IL-8 production by keratinocytes stimulated by P. acnes pre-treated with meclozine analogues” value in the data set with IL-8 production [1] (HaCaT) turned out to be 54%.

For `COc1ccc(-c2ccc3cc(C(=O)O)ccc3c2)cc1C12CC3CC(CC(C3)C1)C2` [adapalene], the “decrease of IL-8 production at 6.25 μM” value in the data set on IL-8 production [1] (HaCaT) stood at 20%. The “IL-8 reduction at 12.5 μM” value in the data set on IL-8 production [1] (HaCaT, 12.5 μM, 24 h pre-treatment (FIG. 8B)) is listed as 90%.

Consider Jak Inhibitor I, for which the “inhibition of stimulated hBD-2 production” value in the data set on hBD-2 production is reported as 38%. In the data set on IL-8 production [2], the “inhibition of M5-stimulated IL-8 production” value was 49%.

With `COc1ccc(CN2CCN(C(c3ccc(F)cc3)c3ccc(F)cc3)CC2)c(OC)c1OC` [Lomerizine], in the data set with HaCaT cells (HaCaT, MTT), the “Evaluation of cell viability after treatment with meclozine analogues on keratinocytes” value is on record as 95%. Besides, the “Dose-dependent inhibition of IL-8 production by keratinocytes stimulated by P. acnes pre-treated with meclozine analogues” value in the data set on IL-8 production [1] (HaCaT) turned out to be 58%.

Turning to `CC1=C(/C=C/C(C)=C/C=C/C(C)=C\C(=O)O)C(C)(C)CCC1` [isotretinoin], in the data set with IL-8 production [1] (HaCaT), the “decrease of IL-8 production at 6.25 μM” value was determined as 5%.

For the compound `O=C(OOC(=O)c1ccccc1)c1ccccc1` [benzoyl peroxide], the “toxicity at 6.25 μM, in words (MTT)” value in the data set with HaCaT cells (HaCaT, 6.25 μM, 24 h pre-treatment (FIG. 8A)) is on record as “no toxicity”. In addition, the “effect on IL-8 production at 6.25 μM, in words” value (from here on “effect on IL-8 production”) with IL-8 production [1] (HaCaT) is given as “very low none significative or no effect”.

`Cc1cccc(C)c1NC(=O)CN1CCN(CCCC(c2ccc(F)cc2)c2ccc(F)cc2)CC1` [Lidoflazine]: in the data set on HaCaT cells (human), the “Evaluation of cell viability after treatment with meclozine analogues on keratinocytes” value is reported as 107%. Further, the “Dose-dependent inhibition of IL-8 production by keratinocytes stimulated by P. acnes pre-treated with meclozine analogues” value with IL-8 production [1] (HaCaT) is given as 65%.

In the case of `CC1=C(/C=C/C(C)=C/C=C/C(C)=C/C(=O)O)C(C)(C)CCC1` [retinoic acid], the “decrease of IL-8 production at 6.25 μM” value in the data set with IL-8 production [1] (HaCaT) came out at 5%.

`CCC[C@@H]1C[C@@H](C(=O)N[C@@H]([C@H]2O[C@H](SC)[C@H](O)[C@@H](O)[C@H]2O)[C@H](C)Cl)N(C)C1` [clindamycine]: in the data set on IL-8 production [1] (HaCaT), the “effect on IL-8 production” value is on record as “very low none significative or no effect”.

The IC50 is the midpoint of a concentration-inhibition curve. As to `Cc1cc(-n2ncc(=O)[nH]c2=O)cc(Cl)c1Sc1ccc(Cl)cc1` [RCL PH000645-PH, PH000645-PH], the “IL-8 production in pretreated cells without being stimulated” value with IL-8 production [3] is given as “no change”. Further, the 50% inhibitory concentration (IC50) with IL-8 production [1] (Homo sapiens, HaCaT cells pre-treated 24 h, then stimulated with P. acnes, read-out: IC50 of inhibition of IL-8 production) is around 3000 nM.

In the case of `CC[C@H]1OC(=O)[C@H](C)[C@@H](O[C@H]2C[C@@](C)(OC)[C@@H](O)[C@H](C)O2)[C@H](C)[C@@H](O[C@@H]2O[C@H](C)C[C@H](N(C)C)[C@H]2O)[C@](C)(O)C[C@@H](C)C(=O)[C@H](C)[C@@H](O)[C@]1(C)O` [erythromycine], in the data set with IL-8 production [1] (HaCaT), the “effect on IL-8 production” value is “very low none significative or no effect”.

On to `Fc1ccc(C(OCCN2CCN(CCCc3ccccc3)CC2)c2ccc(F)cc2)cc1` [GBR 12909 dihydrochloride], for which the “Evaluation of cell viability after treatment with meclozine analogues on keratinocytes” value in the data set with HaCaT cells (human) is on record as 78%. Further, in the data set with IL-8 production [1] (HaCaT), the “Dose-dependent inhibition of IL-8 production by keratinocytes stimulated by P. acnes pre-treated with meclozine analogues” value worked out at 78%.
